Measurements reported in US12606559B2, “JAK inhibitor compounds, methods for synthesizing same and use thereof” (GALDERMA HOLDING SA, priority 2020, dated 2026).
“Also recorded” adds a separate entry of the source. Read-outs that look alike come from different tables or passages of the source.

Key:
[1] = Intrinsic clearance in mouse hepatocytes; assay type: in vitro ADME, male balb-c mouse; conditions: 2.5 μM
Method: (§1) The intrinsic clearance was assessed in cryopreserved Hepatocytes obtained by Human livers donors of mix gender pooled together, male balb-c mouse, male Wistar Han rats and male Göttingen minipig, by looking at the parent compound disappearance. The incubations were performed using a final concentration of viable cells of 1 million/ml (viability above 70%) and test item of 2.5 μM. Incubations were followed up to 2 h. Aliquotes were withdrawn at different time points and reaction quenched with acetonitrile. After centrifugation the supernatant was analyzed by HPLC/MS to quantify the remaining amount of parent in comparison with time 0. The clearance was calculated by fitting the log of the percentage remaining with Graphpad Prism ver.7.

[2] = Systemic level in PD/IL6 mouse topical dose response; conditions: topical 10 mM, PG/Acetone/Transcutol
[3] = Intrinsic clearance in minipig hepatocytes; assay type: in vitro ADME, male Göttingen minipig; conditions: 2.5 μM
Method: as §1

[4] = Protein binding analysis (RED), rat plasma; assay type: in vitro ADME, male Wistar Han rat; conditions: 5 μM, RED 4 h
Method: (§2) The protein binding was assessed in plasma of Human, male balb-c mice, male Wistar Han rat, male Gottingen minipig by rapid equilibrium dialysis (RED) devices. After the plasma and buffer phosphate 50 mM pH7.4 were equilibrated at 37° C., the compound was added to plasma to reach a final concentration of 5 μM. An aliquot of plasma was withdrawn immediately. Equilibration under mild agitation was continued for 4 h. The plasma and buffer were sampled and samples were quenched with 4 volumes of acetonitrile and centrifuged. Supernatant was quantified in HPLC/MS/MS to calculate the recovery and the percentage of compound dissolved in the buffer (unbound) and bound to plasma proteins.

[5] = system: IL-6 induced Phospho-STAT3 (Tyr705) in TF-1 cells; assay: In vitro cellular pSTAT3 assay, IL-6 stimulated TF-1 cells; assay type: cell-based; conditions: Homo sapiens
[6] = In vivo pharmacokinetic analysis in rat, iv; parameters: species or system male Wistar Han rat; conditions: iv 1 mg/kg
Method: (§3) One male Wistar Han rat. Compound was administered intravenously to fed animal at a target dose of 1 mg/kg, dose volume: 2 mL/kg, in DMSO/hydroxypropyl-beta-cyclodextrin 20% in phosphate buffer 60 mM pH 7 (5:95). Blood samples were collected at various time points. Blood samples were then assayed using a method based upon protein precipitation with acetonitrile followed by LC/MS/MS analysis. Non-compartmental methods were used for pharmacokinetic analysis of blood concentration versus time data

[7] = Protein binding analysis (RED), human plasma; assay type: in vitro ADME; conditions: 5 μM, RED 4 h
Method: as §2

[8] = Intrinsic clearance in human hepatocytes; assay type: in vitro ADME; conditions: 2.5 μM
Method: as §1

IL6 signalling in hWB = assay: hWB assay, IL6; assay type: cell-based, human; conditions: Homo sapiens, read-out: hWB assay: IC50 IL6
[9] = Thermodynamic solubility PG_H2O pH 6 2/8; assay type: physicochemical; conditions: amorphous, no cristalline material available
[10] = In vivo pharmacokinetic analysis in minipig, iv; parameters: species or system male Göttingen minipigs; conditions: iv 1 mg/kg
Method: as §3, with “Three” for “One”, “Göttingen minipigs.” for “Wistar Han rat.”, “animals” for “animal”, “volume 1” for “volume: 2”, “DMSO: hydroxypropyl-β-cyclodextrin” for “DMSO/hydroxypropyl-beta-cyclodextrin”, “data.” for “data”

[11] = system: 44 targets (binding and enzyme/uptake assays); assay: CEREP Safety Screen-44; conditions: 10 μM
Method: An in vitro pharmacology assay was conducted to assess the capability of the compounds to interact with different pharmacological targets when tested at 10 μM in different binding and enzyme/uptake assays. The included targets are indicative of potential effects in major organs and drug-drug interactions.
Compound binding was calculated as a % inhibition of the binding of a radioactively labelled ligand specific for each target. […] […].

[12] = Human skin ex vivo: flux through skin and dermis concentration (Franz cells); assay type: in vitro ADME; conditions: PG/H2O cream 1 mg/mL
[13] = Protein binding analysis (RED), mouse plasma; assay type: in vitro ADME, male balb-c mice; conditions: 5 μM, RED 4 h
Method: as §2

[14] = Kinetic aqueous solubility; assay type: physicochemical
[15] = Intrinsic clearance in rat hepatocytes; assay type: in vitro ADME, male Wistar Han rats; conditions: 2.5 μM
Method: as §1

N#CC[C@H](C1CCCC1)n1cc(-c2ncnc3[nH]ccc23)cn1 [Ruxolitinib, reference compound]
Intr. Clear. mheps [1]: 150 microL/min/10 6 cells
PD/IL6 mouse top DR 0.01-10 mM: Systemic level @ 10 mM - 2 hrs [2]: 81 nM
Intr. Clear. minipig heps [3]: 141 microL/min/10 6 cells
rFU [4]: 13%
IC50 ([5]; TF-1, read-out: Cellular Assay: IC50 IL6): 8 nM
IC50 ([5]; TF-1, read-out: Free IC50): 200 nM
iv PK rat: Cl (value in brackets, %) [6]: 51%
hFU [7]: 4%
Intr. Clear. h heps [8]: 4.4 microL/min/10 6 cells
IC50 (IL6 signalling in hWB): 6900 nM
Sol PG_H2O pH 6 2/8, amorphous material [9]: material available-1 mM; also recorded: (0.3 mg/mL)-amorphous)
iv PK minipig: Cl (value in brackets, %) [10]: 68%
Safety panel (Cerep): 44 targets % inh @ 10 microM, Nb of targets > 50% inh [11]: 0/44
measured flux 6-24 hr [12]: 5.3 ng/cm^2/hr
mFU [13]: 7.7%
Kinetic aq sol [14]: 232/ND (no cristalline microM
Intr. Clear. rheps [15]: 300 microL/min/10 6 cells
